Experimental findings from patent US4789675A, “1,4-benzoxazine derivatives and pharmaceutical use” (priority 1986, dated 1988) are described below.

Structures are written as SMILES. Like-named read-outs stand apart in the source and are kept apart here.

In assay [1] the test system is caffeine-induced contraction of rabbit aorta strip depending on intracellular Ca^++. The assay can be described thus: Intracellular Ca++ antagonism: inhibition of caffeine-induced contraction of aorta strip in Ca-free/EGTA solution. The note with it: Oryctolagus cuniculus, caffeine 20 mM, Ca++ 0 mM, EGTA 5 mM, read-out: Inhibitory percent (caffeine contraction); for inhibition at 1 µM: compound 10^-6 M; for inhibition at 10 µM: compound 10^-5 M. As for the experimental part:
A spiral strip of aorta of a rabbit (2 to 3 mm width, aobut 3 cm length) was allowed to equilibrate by hanging under 2 g force in a Krebs-Henseleitsolution. The solution was saturated with a mixture gas of 97% O2 -3% CO2, which was warmed to 37° C. The strip was moved into another Krebs-Henseleit solution containing Ca^++ OmM and EGTA 5 mM. Five minutes later, caffeine (20 mM) was added to the solution. The resulting contraction of the strip was made as the index of the contraction depending on intracellular Ca^++.

Assay [2] relates to Spontaneously hypertensive rats. The assay can be described thus: Antihypertensive action in spontaneously hypertensive rats (tail-cuff). Format: in vivo, rat. The note with it: 1 hour after administration. The procedure:
Spontaneously hypertensive rats (male, 12 to 13 weeks old, blood pressure before administration of drug was about 200 mmHg) were used in groups of 3 individuals. After measuring tail arterial pressure of these animals by the tail-cuff method, the animals were orally given 3 to 60 mg/kg of each test compound of this invention as 2 ml of its suspension in gum arabic. Blood pressure measurements were made again one hour after administration of each test compound.

In assay [3] the test system is contraction of rabbit aorta strip caused by norepinephrine (NE). The assay can be described thus: Vasodilating action: inhibition of contraction of aorta strip caused by norepinephrine (NE). The note with it: Oryctolagus cuniculus; compound 10^-5 M; NE 10^-6 M; treated 30 minutes before the test; read-out: Inhibitory percent against contraction (NE). The procedure:
(§1) A spiral strip of aorta of a rabbit (2 to 3 mm width, about 3 cm length) was allowed to equilibrate by hanging under 2 g force in a Krebs-Henseleitsolution. The solution was saturated with a mixture gas of 97% O2 -3% CO2 which was warmed to 37° C. Inhibitory actions of compounds (10^-5 M) of this invention against contraction of the aorta strip caused by KCl ([…]), norepinephrine (NE) (10^-6 M) or serotonin (5-HT) (10^-6 M), by treating the strip with a compound of this invention 30 minutes before the test (15 minutes in the case of 5-HT), are shown in Table 1 as inhibitory percentage.

The subject of assay [4] is contraction of rabbit aorta strip caused by KCl. The assay can be described thus: Vasodilating action: inhibition of contraction of aorta strip caused by KCl. As to conditions: Oryctolagus cuniculus, compound 10^-5 M, KCl (6.0 mM), read-out: Inhibitory percent against contraction (KCl). As for the experimental part: as §1
Assay [5] concerns contraction of rabbit aorta strip caused by serotonin (5-HT). The assay can be described thus: Vasodilating action: inhibition of contraction of aorta strip caused by serotonin (5-HT). The note with it: Oryctolagus cuniculus; compound 10^-5 M; 5-HT 10^-6 M; treated 15 minutes before the test; read-out: Inhibitory percent against contraction (5-HT). The procedure: as §1
Setting [6] is: treated 30 minutes before the test.

For `CN1C(=O)C(CCCN2CCN(c3ccc(F)cc3)CC2)Oc2cc3c(cc21)CCCC3` (stereo not drawn) [Example 23, 2-{3-[4-(4-fluorophenyl)-1-piperazinyl]propyl}-6,7,8,9-tetrahydro-4-methyl-2H-naphtho[2,3-b][1,4]oxazin-3(4H)-one], the inhibition at 1 µM in assay [1] came to 42%.

As to `Cc1ccc(N2CCN(CCCC3Oc4cc5c(cc4NC3=O)CCCC5)CC2)cc1` (stereo not drawn) [Example 17], in assay [2] (3 mg/kg oral), the “Antihypertensive effect (Δ mm Hg)” value stood at 26 mm Hg.

On to `O=C1Nc2c(ccc3c2CCC3)OC1CCCN1CCN(c2ccc(F)cc2)CC1` (stereo not drawn) [Example 28, 5,6-cyclopenteno-2-{3-[4-(4-fluorophenyl)-1-piperazinyl]propyl}-2H-1,4-benzoxazin-3(4H)-one], for which the “Antihypertensive effect (Δ mm Hg)” value in assay [2] (3 mg/kg oral) amounted to 20 mm Hg. For the same compound, the results for the inhibition at 10 µM in assay [3] and in assay [4] (setting [6]) were 100% and 28%, respectively.

With `O=C1Nc2ccccc2OC1CCCN1CCN(c2ccc(F)cc2)CC1` (stereo not drawn) [Example 2], the “Antihypertensive effect (Δ mm Hg)” value in assay [2] (60 mg/kg oral) was determined as 44 mm Hg. The inhibition at 10 µM in assay [3] came to 100%; in assay [4] (treating 3 hours before the test (*1)), 73%.

Turning to `Nc1ccc2c(c1)NC(=O)C(CCCN1CCN(c3ccc(F)cc3)CC1)O2` (stereo not drawn) [Example 24, 6-amino-2-{3-[4-(4-fluorophenyl)-1-piperazinyl]propyl}-2H-1,4-benzoxazin-3(4H)-one], in assay [2] (60 mg/kg oral), the “Antihypertensive effect (Δ mm Hg)” value is recorded as 60 mm Hg.

On to `Cc1ccc2c(c1)NC(=O)C(CCCN1CCN(c3ccc(F)cc3)CC1)O2` (stereo not drawn) [Example 3], for which the “Antihypertensive effect (Δ mm Hg)” value in assay [2] (60 mg/kg oral) worked out at 45 mm Hg. For the same compound, the inhibition at 10 µM in assay [3] was 99%; in assay [1] it was 60%; in assay [5] it was 91%; in assay [4] (setting [6]) it was 10%.

As for `O=C1Nc2cc(Cl)ccc2OC1CCCN1CCN(c2ccc(F)cc2)CC1` (stereo not drawn) [Example 7], the inhibition at 10 µM in assay [3] was determined as 98%; in assay [5], 81%; in assay [4] (setting [6]) it was 29%.

Take `O=C1Nc2cc(C(F)(F)F)ccc2OC1CCCN1CCN(c2ccc(F)cc2)CC1` (stereo not drawn) [Example 27, 2-{3-[4-(4-fluorophenyl)-1-piperazinyl]propyl}-6-trifluoromethyl-2H-1,4-benzoxazin-3(4H)-one]: the inhibition at 10 µM was 98% in assay [3] and 36% in assay [4] (setting [6]).

Turning to `O=C1Nc2cc3c(cc2O[C@@H]1CCCN1CCN(c2ccc(F)cc2)CC1)CCCC3` [Example 31, (R)-(+)-2-{3-[4-(4-fluorophenyl)-1-piperazinyl]propyl}-6,7,8,9-tetrahydro-2H-naphtho[2,3-b][1,4]oxazin-3(4H)-one], in assay [2] (3 mg/kg oral), the “Antihypertensive effect (Δ mm Hg)” value stood at 21 mm Hg. The inhibition at 10 µM in assay [3] turned out to be 99%; in assay [4] (setting [6]) it was 30%.

Regarding `Cc1ccc2c(c1)NC(=O)C(CCN1CCN(c3ccc(F)cc3)CC1)O2` (stereo not drawn) [Example 5], the inhibition at 10 µM in assay [3] was found to be 86%; in assay [1], 58%; in assay [5] it was 100%; in assay [4] (setting [6]), 9%.

`O=C1Nc2c(ccc3c2CCCC3)OC1CCCN1CCN(c2ccc(F)cc2)CC1` (stereo not drawn) [Example 10]: the “Antihypertensive effect (Δ mm Hg)” value in assay [2] (10 mg/kg oral) amounted to 23 mm Hg. In assay [1], the inhibition at 10 µM came out at 59%.

Turning to `O=C1Nc2cc3c(cc2OC1CCCN1CCN(c2ccc(O)cc2)CC1)CCCC3` (stereo not drawn) [Example 21], the inhibition at 10 µM is 99% in assay [3] and 26% in assay [4] (setting [6]). Besides, in assay [1], the inhibition at 1 µM was found to be 54%.

For the compound `O=C1Nc2cc3c(cc2OC1CCCN1CCN(c2ccc(F)cc2)CC1)CCC3` (stereo not drawn) [Example 12], in assay [2] (3 mg/kg oral), the “Antihypertensive effect (Δ mm Hg)” value is reported as 20 mm Hg. Moreover, the inhibition at 10 µM in assay [3] turned out to be 100%; in assay [4] (setting [6]), 21%.

With `O=C1Nc2cc([N+](=O)[O-])ccc2OC1CCCN1CCN(c2ccc(F)cc2)CC1` (stereo not drawn) [Example 6, 2-{3-[4-(4-fluorophenyl)-1-piperazinyl]propyl}-6-nitro-2H-1,4-benzoxazin-3(4H)-one], the “Antihypertensive effect (Δ mm Hg)” value in assay [2] (60 mg/kg oral) came to 43 mm Hg. In addition, the values for the inhibition at 10 µM in assay [3], in assay [5] and in assay [4] (setting [6]) were 100%, 81% and 37%, respectively.

Consider `CCOC(=O)c1ccc2c(c1)OC(CCCN1CCN(c3ccc(F)cc3)CC1)C(=O)N2` (stereo not drawn) [Example 8], for which the “Antihypertensive effect (Δ mm Hg)” value in assay [2] (60 mg/kg oral) was determined as 35 mm Hg. For the same compound, the inhibition at 10 µM in assay [3] stood at 98%; in assay [4] (setting [6]), 33%.

As to `O=C1Nc2cc3c(cc2O[C@H]1CCCN1CCN(c2ccc(F)cc2)CC1)CCCC3` [Example 30, (S)-(-)-2-{3-[4-(4-fluorophenyl)-1-piperazinyl]propyl}-6,7,8,9-tetrahydro-2H-naphtho[2,3-b][1,4]oxazin-3(4H)-one], the “Antihypertensive effect (Δ mm Hg)” value in assay [2] (3 mg/kg oral) amounted to 21 mm Hg. In addition, the inhibition at 10 µM is 73% in assay [3] and 33% in assay [4] (setting [6]).

In the case of `O=C1Nc2cc3c(cc2OC1CCCN1CCN(c2ccc(F)cc2)CC1)OCO3` (stereo not drawn) [Example 13], the “Antihypertensive effect (Δ mm Hg)” value in assay [2] (3 mg/kg oral) was determined as 27 mm Hg. The inhibition at 10 µM in assay [3] turned out to be 100%; in assay [4] (setting [6]), 24%.

Take `CC(=O)Nc1ccc2c(c1)NC(=O)C(CCCN1CCN(c3ccc(F)cc3)CC1)O2` (stereo not drawn) [Example 25, 6-acetamido-2-{3-[4-(4-fluorophenyl)-1-piperazinyl]propyl}-2H-1,4-benzoxazin-3(4H)-one]: the “Antihypertensive effect (Δ mm Hg)” value in assay [2] (60 mg/kg oral) is listed as 81 mm Hg. Moreover, the values for the inhibition at 10 µM in assay [3] and in assay [4] (setting [6]) were 100% and 9%, respectively.

Consider `O=C1Nc2cc3c(cc2OC1CCCCN1CCN(c2ccc(F)cc2)CC1)CCCC3` (stereo not drawn) [Example 22], for which the “Antihypertensive effect (Δ mm Hg)” value in assay [2] (3 mg/kg oral) was determined as 23 mm Hg. The inhibition at 10 µM was 95% in assay [3], 38% in assay [5] and 14% in assay [4] (setting [6]).
